Data published in patent US20070161644A1, “Erastin analogs and uses thereof” (priority 2005, published 2007).

Assays:
[1] = tested on: BJ-TERT/LT/ST/RAS^V12 cells; test: Annexin V-FITC apoptosis assay; format: cell-based, human; conditions: camptothecin-treated (1 μM); untreated 6%
Protocol: BJ-TERT/LT/ST/RAS^V12 cells were seeded at 1×10^6 cells per dish in 100 mm dishes and allowed to grow overnight. Cells were treated with erastin (5 or 10 μg/ml) for 6, 8 or 11 h. A camptothecin-treated (0.4 μg/ml) control was maintained, treated at the time of seeding for 20 hours. After the treatment, cells were harvested with trypsin/EDTA and washed once with fresh medium containing serum and then twice with phosphate buffered saline. Cells were resuspended in 1× binding buffer (BD Pharmingen) at a concentration of 1×10^6 cells/ml. 100 μl (1×10^5 cells) was incubated with 5 μl of Annexin V-FITC (BD Pharmingen) and propidium iodiode (BD Pharmingen) for 15 minutes in the dark at room temperature. Then 400 μl of the 1× binding buffer was added and the cells analyzed by flow cytometry (Becton-Dickinson). Data were acquired and analyzed using Cellquest software.

[2] = tested on: cleaved, active caspase 3 in BJ-TERT/LT/ST/RAS^V12 cells; test: Western blot for active caspase-3; format: cell-based, human; conditions: western blot of lysates
Protocol: BJ-TERT/LT/ST/RAS^V12 cells were seeded prior to the experiment at 5×10^5 cells in 60 mm dishes. The cells were treated with 5 μg/ml erastin (9 μM) for 2, 4, 6, 8 or 10 hours. One dish was maintained for camptothecin treatment (0.4 μg/ml for 24 h) as a positive control. Cells were lysed after each time point in lysis buffer (50 mM HEPES KOH pH 7.4, […], 2 mM EDTA, 0.5% Triton X-100, 1.5 mM Na3VO4, 50 mM NaF, 10 mM sodium pyrophosphate, 10 mM sodium beta-glycerophosphate and protease inhibitor tablet (Roche)). Protein content was quantified using a Biorad protein assay reagent. Equal amounts of protein were resolved on 16% SDS-polyacrylamide gel. The electrophoresed proteins were transblotted onto a PVDF membrane, blocked with 5% milk and incubated with anti-active caspase-3 polyclonal antibody (BD Pharmingen) at 1:1500 dilution overnight at 4° C. The membrane was then incubated in anti-rabbit-HRP (Santa Cruz Biotechnology) at 1:3000 dilution for 1 hour and developed with an enhanced chemiluminescence mixture (NEN life science, Renaissance). To test for equivalent loading in each lane, blots were stripped, blocked, and probed with an anti-eIF-4E antibody (BD Transduction laboratories) at 1:1000 dilution.

[3] = tested on: VDAC isoforms, Prohibitin and Ribophorin; test: Pull-down with immobilized erastin derivatives; format: binding, human; conditions: pull-down from lysates, mitochondrial extract or MonoQ fractions
Protocol: Pull-down assays using immobilized erastin and cell lysates were used in an initial attempt to identify erastin binding partners inside a cell. Initial pull-down experiments were performed with HEK293, BJEH and BJELR whole cell lysates. In those experiments, a methyl-amino derivative of erastin (ERA-A6) was immobilized to Affigel 10 and incubated with lysate under standard pull-down conditions. The beads were washed and either eluted with 100 μM erastin or 0.8% N-lauroylsarcosine (sarkosyl). The eluates were subjected to mass spectrometric analysis.
Since Prohibitin and the VDAC isoforms are all mitochondrial proteins, Applicants enriched potential erastin targets by isolating mitochondria from cell lysates. The isolated mitochondrial extracts were then used in erastin pull-down experiments. In those erastin pull-down experiments with the mitochondrial extracts, Prohibitin, VDAC and Ribophorin were also identified by Western blot. […] The pull-downs were performed with 0.25 mg total protein of the mitochondrial extract. The beads were incubated with the extracts for 1.5 h at 4° C. and then washed several times. Proteins bound to the immobilized Erastin derivatives were eluted with 50 μL of 0.8% N-lauroylsarcosine solution. […]
Ribophorin and Prohibitin are rather acidic proteins with a calculated PI of 5.57 (Prohibitin) and 5.96 (Ribophorin I). […]

[4] = tested on: BJ-TERT/LT/ST/RAS^V12 cells relative to BJ-TERT cells; test: Alamar Blue viability assay, tumorigenic versus wild type cells; format: cell-based, human
Protocol: Alamar Blue is reduced by mitochondrial enzyme activity in viable cells, causing both colorimetric and fluorescent changes (Nociari et al., 1998, J. Immunol. Methods 13, 157-167). Cells were seeded at a density of 6000 cells (50 μl) per well in a 384-well black, clear bottom plate using a syringe bulk dispenser (Zymark). 10 μl was removed from a two-fold serially diluted erastin plate (6× final concentration) using a 384 fixed cannula head, making the final concentration 20 μg/ml in the well with highest concentration. The plates were incubated for 24 hours. Alamar Blue (Biosource International) was added to each well by diluting 1:10 and incubated for 16 hours at 37° C. Fluorescence intensity was determined using a Packard Fusion platereader with an excitation filter centered on 535 nm and an emission filter centered on 590 nm. Average percentage inhibition at each concentration was calculated. Error bars indicate one standard deviation.
The effect of erastin or erastin B on cell viability was measured using Alamar Blue as described in Example 3 in both tumorigenic BJ-TERT/LT/ST/RAS^V12 (BJELR) cells and wild type BJ-TERT (BJEH) cells. In this example, cell viability was measured at 1, 2, and 3 days after treatment with erastin or erastin B (data for days 1 and 3 not shown). Average percentage inhibition at each concentration was measured.
The effect on cell viability of each of the two isomers of Compound 20 was measured using the Alamar Blue assay described in Example 3 in both tumorigenic BJ-TERT/LT/ST/RAS^V12 cells and wild type BJ-TERT cells. Average percentage inhibition at each concentration was measured.
The effect on cell viability of erastin or Compound 21 was measured using the Alamar Blue assay as described in Example 3 in both tumorigenic BJ-TERT/LT/ST/RAS^V12 cells and in wild type BJ-TERT cells. Average percentage inhibition at each concentration was measured. […]

[5] = tested on: BJ-TERT/LT/ST/RAS^V12 cells; test: Cell death in the presence of a pan-caspase inhibitor; format: cell-based, human; conditions: 50 μM inhibitor

Q: CC[C@@]1(O)C(=O)OCc2c1cc1n(c2=O)Cc2cc3ccccc3nc2-1 [Camptothecin, reference compound] was tested. Which “percentage of cells in M1 region (Annexin V staining)” value [1] did it give?
A: 38%

Q: And the “activated caspase 3” value [2]?
A: harbor activated caspase 3

Q: How did the “binding of cellular proteins to the immobilized compound” value [3] turn out when CCOc1ccccc1-n1c(C(C)N2CCN(C(=O)COc3ccc(CN)cc3)CC2)nc2ccccc2c1=O (centres unmarked) [Compound 19] was run?
A: Prohibitin and Ribophorin were identified as binding to the Erastin beads

Q: What about the “lethality in BJ-TERT/LT/ST/RAS^V12 (BJELR) cells compared to BJ-TERT (BJEH) cells” value [4] of the same compound?
A: selective lethality

Q: With COC(=O)CC(NC(=O)OC(C)(C)C)C(=O)CF (centres unmarked) [Boc-Asp(Ome)-fluoromethyl ketone] as the compound, how does the “block of compound-induced cell death” value [5] read?
A: partially blocked cell death induced by CPT, but not by erastin
